Like-named read-outs stand apart in the source and are kept apart here.
Columns and labels:
Yeast [1] = test system: Yeast
Method: (§1) Ethanol production and microbiological profile were analyzed in four fermentation studies using corn treated with 0 (control), 0.45 and 0.90 Kg/MT Formaldehyde. Ground corn and water were mixed and incubated at room temperature in a air-tight 250-ml fermenter jars for 6 hours. This was done in order to increase the naturally occurring Lactobacillus in corn. Previous studies have shown that the level of Lactobacillus is less than 100 cfu/gr in corn. The other reagents were added into the fermenters as described in the following table.
(§2) After the addition of all the reagents, fermenters were sealed with a cap containing a water trap. Fermenters were kept under constant stirring (low speed) at room temperature (21-23° C.) for 72 hours before sampling for yeast, Lactobacillus and alcohol production. Lactobacillus counts were determined on MRS broth containing 1.5% Difco™ Agar. Plates were incubated in an anaerobic chamber at 37-C for 48 hours and colonies enumerated. Yeast counts were determined on PDA plates. Plates were incubated at 27° C. for 48 hours and colonies enumerated. Alcohol was determined by FT-IR (FOSS system).

Lactobacillus [2] = test system: Lactobacillus
Method: as §1, §2

Yeast [3] = test system: Yeast; remark: listed apart in the source
Method: (§3) Whole corn obtained from a commercial source was treated with formalin (37% formaldehyde solution) at 0, 0.9, 1.8 and 2.7 kg/MT. After 24 h, 30 g of corn from each treatment was finely ground and added to glass fermenters with water, enzyme and yeast as described below. Lactobacillus plantarum (B-4496) grown in MRS broth was added to the fermentation bottles (0.2 ml of 6.2×10^5 cfu/g). Samples were taken after 72 hours fermentation for yeast and Lactobacillus counts. The whole content of the fermentations bottles were centrifuged for 30 minutes at 5000 rpm, filtered through cheesecloth and through a 0.45 u tilter to quantify ethanol production. Treatments are listed on the following table

[4] = test system: Lactobacillus plantarum (B-4496); conditions: control also 0
Method: as §3

wild yeast/mold = test system: wild yeast/mold
Method: (§4) Wild Lactobacillus and yeast/mold profile were determined in four studies using corn treated with 0 (control), 0.45 and 0.90 Kg/MT Formaldehyde (HCHO). Ground corn and water were mixed and incubated at room temperature (21-23° C.) in an anaerobic environment for 24 hours. To 5 gr of ground corn 45 ml of Butterfield was added and incubated overnight in a closed container while stirring at room temperature. After incubation, samples were taken to enumerate wild yeast/mold and Lactobacillus.

Wild Lactobacillus = test system: Wild Lactobacillus
Method: as §4

[5] = test system: Lactobacillus plantarum (B-4496)
Method: (§5) After 24 h, 30 g of corn from each treatment was finely ground and added to glass fermenters with water, enzyme and yeast as described below. Lactobacillus plantarum (B-4496) grown in MRS broth was added to the fermentation bottles (0.1 ml of 6.2×10^10 cfu/mL). Samples were taken after 72 hours fermentation for yeast and Lactobacillus counts.

Yeast [6] = test system: Yeast; remark: listed apart in the source
Method: as §5

Lactobacillus [7] = conditions: 600 mg/L, cited from earlier work
Lactobacillus [8] = conditions: during fermentation; cited from earlier work
Yeast [9] = conditions: 8 g/L; beet molasses batch fermentation; cited from earlier work
yeast populations = conditions: 100 to 400 mg/L; cited from earlier work
Yeast [10] = conditions: cited from earlier work

With `C=O` [Formaldehyde, formaldehyde] the “Yeast (cfu/gr) after 72-h Fermentation” value (Yeast [1]; 0.45 kg/MT, Study 9) was 9.5 × 10^8 cfu/gr, the “Yeast (cfu/gr) after 72-h Fermentation” value (Yeast [1]; 0.45 kg/MT, Study 10) was 1.2 × 10^9 cfu/gr and the “Yeast (cfu/gr) after 72-h Fermentation” value (Yeast [1]; 0.45 kg/MT, Study 11) was 4.7 × 10^9 cfu/gr. The “Yeast (cfu/gr) after 72-h Fermentation” value (Yeast [1]; 0.45 kg/MT, Study 12) was 1.8 × 10^9 cfu/gr, the “Yeast (cfu/gr) after 72-h Fermentation” value (Yeast [1]; 0.9 kg/MT, Study 9) was 7.4 × 10^8 cfu/gr and the “Yeast (cfu/gr) after 72-h Fermentation” value (Yeast [1]; 0.9 kg/MT, Study 10) was 1.1 × 10^9 cfu/gr. The “Yeast (cfu/gr) after 72-h Fermentation” value (Yeast [1]; 0.9 kg/MT, Study 11) was 3.6 × 10^9 cfu/gr, the “Yeast (cfu/gr) after 72-h Fermentation” value (Yeast [1]; 0.9 kg/MT, Study 12) was 1.8 × 10^9 cfu/gr and the “Lactobacillus (cfu/gr) after 72-h Fermentation” value (Lactobacillus [2]; 0.45 kg/MT, Study 9) was 8.5 × 10^8 cfu/gr. For the same molecule, the “Lactobacillus (cfu/gr) after 72-h Fermentation” value (Lactobacillus [2]; 0.45 kg/MT, Study 10) was 5.2 × 10^8 cfu/gr, the “Lactobacillus (cfu/gr) after 72-h Fermentation” value (Lactobacillus [2]; 0.45 kg/MT, Study 12) was 8.9 × 10^8 cfu/gr and the “Lactobacillus (cfu/gr) after 72-h Fermentation” value (Lactobacillus [2]; 0.9 kg/MT, Study 9) was 7.4 × 10^8 cfu/gr. For the same molecule, the “Lactobacillus (cfu/gr) after 72-h Fermentation” value (Lactobacillus [2]; 0.9 kg/MT, Study 10) was 4.3 × 10^8 cfu/gr, the “Lactobacillus (cfu/gr) after 72-h Fermentation” value (Lactobacillus [2]; 0.9 kg/MT, Study 12) was 9.4 × 10^8 cfu/gr and the “Yeast (cfu/ml) 72 h” value (Yeast [3]; 0.9 kg/MT) was 9.50 × 10^8 cfu/ml. For the same molecule, the “Yeast (cfu/ml) 72 h” value (Yeast [3]; 1.8 kg/MT) was 6.60 × 10^8 cfu/ml, the “Yeast (cfu/ml) 72 h” value (Yeast [3]; 2.7 kg/MT) was 4.20 × 10^8 cfu/ml and the “Lactobacillus (cfu/ml) 72 h” value ([4]; 0.9 kg/MT) was 0 cfu/ml. For the same molecule, the “Lactobacillus (cfu/ml) 72 h” value ([4]; 1.8 kg/MT) was 0 cfu/ml, the “Lactobacillus (cfu/ml) 72 h” value ([4]; 2.7 kg/MT) was 0 cfu/ml and the “Yeast (cfu/gr) after 24-h Incubation” value (wild yeast/mold; 0.45 kg/MT, Study 1) was 3.0 × 10^5 cfu/gr. For the same molecule, the “Yeast (cfu/gr) after 24-h Incubation” value (wild yeast/mold; 0.45 kg/MT, Study 2) was 7.0 × 10^5 cfu/gr, the “Yeast (cfu/gr) after 24-h Incubation” value (wild yeast/mold; 0.45 kg/MT, Study 3) was 1.6 × 10^5 cfu/gr and the “Yeast (cfu/gr) after 24-h Incubation” value (wild yeast/mold; 0.45 kg/MT, Study 4) was 3.2 × 10^5 cfu/gr. For the same molecule, the “Yeast (cfu/gr) after 24-h Incubation” value (wild yeast/mold; 0.9 kg/MT, Study 1) was 7.6 × 10^4 cfu/gr, the “Yeast (cfu/gr) after 24-h Incubation” value (wild yeast/mold; 0.9 kg/MT, Study 2) was 5.6 × 10^6 cfu/gr and the “Yeast (cfu/gr) after 24-h Incubation” value (wild yeast/mold; 0.9 kg/MT, Study 3) was 2.0 × 10^3 cfu/gr. The “Yeast (cfu/gr) after 24-h Incubation” value (wild yeast/mold; 0.9 kg/MT, Study 4) was 2.6 × 10^5 cfu/gr, the “Lactobacillus (cfu/gr) after 24-h Incubation” value (Wild Lactobacillus; 0.45 kg/MT, Study 1) was 4.0 × 10^5 cfu/gr and the “Lactobacillus (cfu/gr) after 24-h Incubation” value (Wild Lactobacillus; 0.45 kg/MT, Study 2) was 9.3 × 10^5 cfu/gr. The “Lactobacillus (cfu/gr) after 24-h Incubation” value (Wild Lactobacillus; 0.45 kg/MT, Study 3) was 2.9 × 10^4 cfu/gr, the “Lactobacillus (cfu/gr) after 24-h Incubation” value (Wild Lactobacillus; 0.45 kg/MT, Study 4) was 7.7 × 10^5 cfu/gr and the “Lactobacillus (cfu/gr) after 24-h Incubation” value (Wild Lactobacillus; 0.9 kg/MT, Study 1) was 6.2 × 10^4 cfu/gr. For the same molecule, the “Lactobacillus (cfu/gr) after 24-h Incubation” value (Wild Lactobacillus; 0.9 kg/MT, Study 2) was 1.2 × 10^4 cfu/gr, the “Lactobacillus (cfu/gr) after 24-h Incubation” value (Wild Lactobacillus; 0.9 kg/MT, Study 3) was 9.0 × 10^3 cfu/gr and the “Lactobacillus (cfu/gr) after 24-h Incubation” value (Wild Lactobacillus; 0.9 kg/MT, Study 4) was 8.1 × 10^4 cfu/gr. The “Lactobacillus (cfu/ml) 72 h” value ([5]; 0.9 kg/MT) was 9.8 × 10^7 cfu/ml, the “Lactobacillus (cfu/ml) 72 h” value ([5]; 1.8 kg/MT) was 4.7 × 10^7 cfu/ml and the “Lactobacillus (cfu/ml) 72 h” value ([5]; 2.7 kg/MT) was 3.7 × 10^7 cfu/ml. For the same molecule, the “decrease in cfu's of Lactobacillus” value ([5]; Lactobacillus added at higher concentrations) was 1 log, the “Yeast (cfu/ml) 72 h” value (Yeast [6]; 0.9 kg/MT) was 8.8 × 10^8 cfu/ml and the “Yeast (cfu/ml) 72 h” value (Yeast [6]; 1.8 kg/MT) was 6.6 × 10^8 cfu/ml. For the same molecule, the “Yeast (cfu/ml) 72 h” value (Yeast [6]; 2.7 kg/MT) was 8.0 × 10^8 cfu/ml.

In the case of `O=C(O)CCC(=O)O` [Succinic acid], the “reduction of Lactobacillus concentrations” value (Lactobacillus [7]; by itself) is given as 78% and the “reduction of Lactobacillus concentrations” value (Lactobacillus [7]; in the presence of ethanol) is given as “up to 96%”.

In the case of `NC(N)=O.OO` [UHP, Urea hydrogen peroxide], the “bactericidal activity against Lactobacillus” value (Lactobacillus [8]) is given as “excellent bactericidal activity”.

In the case of `CC(O)C(=O)O` (centres unmarked) [lactic acid], the “reduction of alcohol production rate” value (Yeast [9]) is given as 80% and the “reduction of yeast viability” value (Yeast [9]) is given as 95%.

For `O=S(O)O` [sulfite], the “effect on yeast populations” value (yeast populations) is given as “did not affect yeast populations”.

For virginiamycin, the “inhibition of the yeast” value (Yeast [10]) is listed as “does not significantly inhibit the yeast”.

Reference: patent publication US8883470B2, “Fermentation of carbohydrate” (Anitox Corporation, priority 2009, dated 2014)
